Values quoted from earlier work in patent publication US20240115547A1, “PSYCHOTROPIC AGENTS AND USES THEREOF” (LB PHARMACEUTICALS INC., priority 2021, published 2024).

What was measured:
[1] = 2014 study; cited from earlier work
[2] = molecular target: T1, D4 receptor subtype (Homo sapiens, UniProt P21917); conditions: cited from earlier work
T1 sequence (P21917 1-419): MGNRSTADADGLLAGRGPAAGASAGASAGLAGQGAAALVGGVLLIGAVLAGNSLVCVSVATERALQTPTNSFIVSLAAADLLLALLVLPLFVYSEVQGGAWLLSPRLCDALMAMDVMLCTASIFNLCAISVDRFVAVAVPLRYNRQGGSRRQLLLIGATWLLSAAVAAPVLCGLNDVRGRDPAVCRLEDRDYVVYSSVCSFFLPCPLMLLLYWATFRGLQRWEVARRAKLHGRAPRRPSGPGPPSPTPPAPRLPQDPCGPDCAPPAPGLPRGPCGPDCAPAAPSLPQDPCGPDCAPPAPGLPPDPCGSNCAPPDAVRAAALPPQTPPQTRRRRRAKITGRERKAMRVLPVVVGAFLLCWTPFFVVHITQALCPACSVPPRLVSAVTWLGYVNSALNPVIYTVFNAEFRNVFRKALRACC

[3] = molecular target: 5-HT2a receptor (Homo sapiens, UniProt P28223); conditions: compared to other antipsychotics; cited from earlier work
5-HT2a receptor, sequence (P28223 whole entry): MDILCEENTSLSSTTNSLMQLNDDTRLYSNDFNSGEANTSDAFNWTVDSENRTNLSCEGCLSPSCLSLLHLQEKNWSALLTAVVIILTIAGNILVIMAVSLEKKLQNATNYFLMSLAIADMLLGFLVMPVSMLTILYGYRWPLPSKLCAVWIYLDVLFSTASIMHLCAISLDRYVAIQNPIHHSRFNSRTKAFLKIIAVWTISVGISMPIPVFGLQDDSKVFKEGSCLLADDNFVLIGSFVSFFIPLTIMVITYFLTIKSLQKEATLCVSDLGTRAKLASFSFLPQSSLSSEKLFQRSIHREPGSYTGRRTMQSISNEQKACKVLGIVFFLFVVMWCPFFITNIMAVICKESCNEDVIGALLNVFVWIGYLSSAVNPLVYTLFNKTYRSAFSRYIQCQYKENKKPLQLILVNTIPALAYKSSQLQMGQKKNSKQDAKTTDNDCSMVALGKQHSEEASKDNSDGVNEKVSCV

[4] = molecular target: D5 receptor subtype (Homo sapiens, UniProt P21918); conditions: cited from earlier work
D5 receptor subtype, sequence (P21918 whole entry): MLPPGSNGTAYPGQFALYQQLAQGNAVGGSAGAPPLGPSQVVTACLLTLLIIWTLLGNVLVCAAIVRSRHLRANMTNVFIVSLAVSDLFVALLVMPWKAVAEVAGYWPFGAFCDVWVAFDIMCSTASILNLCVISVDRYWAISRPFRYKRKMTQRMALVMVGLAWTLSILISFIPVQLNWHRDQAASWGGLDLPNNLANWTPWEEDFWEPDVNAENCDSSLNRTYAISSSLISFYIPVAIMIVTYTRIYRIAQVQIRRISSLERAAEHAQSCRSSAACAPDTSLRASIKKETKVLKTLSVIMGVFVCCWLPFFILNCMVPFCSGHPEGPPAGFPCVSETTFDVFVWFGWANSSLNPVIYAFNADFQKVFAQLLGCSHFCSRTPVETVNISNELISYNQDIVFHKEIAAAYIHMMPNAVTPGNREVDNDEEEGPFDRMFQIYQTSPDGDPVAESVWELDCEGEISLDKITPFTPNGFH

[5] = test system: Striatal D2/D3 Receptor; conditions: in vivo; cited from earlier work
[6] = administration of 50 mg amisulpride, previously published (FIG. 4A); cited from earlier work
[7] = molecular target: D1 receptor subtype (Homo sapiens, UniProt P21728); conditions: cited from earlier work
D1 receptor subtype, sequence (P21728 whole entry): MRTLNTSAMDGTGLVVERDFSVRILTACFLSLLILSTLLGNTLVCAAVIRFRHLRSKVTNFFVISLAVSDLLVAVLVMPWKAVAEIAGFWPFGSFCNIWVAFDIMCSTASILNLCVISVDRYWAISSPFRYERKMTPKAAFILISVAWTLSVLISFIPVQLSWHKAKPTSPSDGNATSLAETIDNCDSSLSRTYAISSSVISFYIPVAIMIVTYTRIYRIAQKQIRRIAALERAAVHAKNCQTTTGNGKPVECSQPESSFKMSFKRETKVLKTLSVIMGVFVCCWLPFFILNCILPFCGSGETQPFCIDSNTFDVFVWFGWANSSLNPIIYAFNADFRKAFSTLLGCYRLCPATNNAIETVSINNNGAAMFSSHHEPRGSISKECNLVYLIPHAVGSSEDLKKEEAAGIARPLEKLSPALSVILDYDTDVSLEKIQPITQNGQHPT

For `CCN1CCCC1CNC(=O)c1cc(S(=O)(=O)CC)c(N)cc1OC` (stereo not shown) [amisulpride, 4-amino-N-(((1-ethyl-2-pyrrolidinyl)methyl)-5-(ethylsulfonyl))-2-methoxybenzamide], the “passive diffusion across a PAMPA membrane (measured as Pe)” value [1] is listed as “lowest of 30 psychiatric drugs tested”, the “affinity for D4 receptor subtype” value [2] is listed as “without any affinity” and the “activity at the 5-HT2a receptor” value [3] is listed as “not noted to have any activity”. For the same molecule, the “affinity for D5 receptor subtype” value [4] was “without any affinity”, the “dose required for 75% dopamine (e.g., D2/D3) RO” value [5] was “more than 400 mg” and the AUC [6] was 603 ngh/mL. The “affinity for D1 receptor subtype” value [7] was “without any affinity”.
